# Literature values, collected in paper PMC6500982 (Cancer Science, 2019).
# System: ABC‐DLBCL cell line, TMD8
# Settings: cited from earlier work
smiles,measurement,value
CC#CC(=O)N1CC[C@@H](n2c(=O)n(-c3ccc(Oc4ccccc4)cc3)c3c(N)ncnc32)C1 [tirabrutinib],Cytostatic properties in vitro,cytostatic properties
